Source: patent US20240010726A1, “LFA-1 SIGNALLING MEDIATOR FOR USE IN CANCER THERAPY” (Universität Basel, priority 2020, published 2024)

Legend:
REP T cells = test: FAK phosphorylation and CD107a degranulation of REP T cells co-incubated with T2 target cells; format: cell-based, human; settings: pulsed T2 target cells; presence vs absence of extracellular Mg^2+
Description: FIG. 3: Magnesium regulates LFA-1 mediated T cell activation and cytotoxicity as well BiTE- and CAR T-cell functionality. (a) Glycolytic switch of murine WT and LFA-1^−/− CTLs upon injection of anti-CD3/28 Ab in medium containing 1.2 mM Mg^2+ and 0 mM Mg^2+, presented as quantification of summarized data with n=4 mice. (b) Calcium flux in WT and LFA-1^−/− Jurkat T cells stimulated with anti-CD3 Ab in 1.2 mM and 0 mM Mg^2+ medium, respectively. Cells were loaded with Fluo4, and signal intensity as recorded by plate reader, was normalized to unstimulated baseline values. […] Quantified results of n=3 mice with 3 technical replicates each. (d) Caspase-3 activity in EL4 target cells after co-culture with murine WT and LFA-1^−/− CTLs under the conditions as in (c) for 4 hours, in presence of 10 μg/ml PHA. The effector to target cell ratio was 3:1. Results are quantified of n=3 mice with 3 technical replicates each. (e) Representative CD11a (LFA-1) surface expression on human naïve and EM CD8 T cells, PHA T cell blasts and REP T cells, assessed by flow cytometry. Flow cytometry-based assessment of inactivate LFA-1 with bent conformation (f), extended conformation with β2 leg extension (g), LFA-1 with open head-piece (h), phosphorylation of FAK, expression of degranulation marker CD107a (j) on REP T cells after co-incubation with T2 target cells (pulsed with 10^−8 M 9c peptide) in same condition as in (c). The effector to target cell ratio was 1:1. Data is presented as quantified results of n=5 healthy donors (f, g, h), n=3 healthy donors with 2 technical replicates each or n=1 healthy donor with 4 technical replicates (j). […] Data is presented as quantified results of n=1 healthy donor with 4 technical replicates. […] Cytotoxicity is reported as total area under the curve of the fluorescence driven by incorporation of cytotoxic green reagent in dead target cells (green area per μm^2). […] (p) Abundance of IFNγ in cell culture supernatants corresponding to the conditions depicted in (o) at 24 hours was determined by ELISA (n=8, 3 independent experiments). […]

LFA-1 = molecular target: T1, LFA-1 (Homo sapiens, UniProt P05107+P20701); test: Flow cytometry of LFA-1 conformations on PHA T cell blasts; format: cell-based
T1 construct: endogenous in cells; host or cells: primary human T cells from healthy donors: PHA-induced T cell blasts, sorted EM and naive CD8 T cells, and NY-ESO-1 TCR-transduced REP T cells
T1 sequence (P20701 26-1170): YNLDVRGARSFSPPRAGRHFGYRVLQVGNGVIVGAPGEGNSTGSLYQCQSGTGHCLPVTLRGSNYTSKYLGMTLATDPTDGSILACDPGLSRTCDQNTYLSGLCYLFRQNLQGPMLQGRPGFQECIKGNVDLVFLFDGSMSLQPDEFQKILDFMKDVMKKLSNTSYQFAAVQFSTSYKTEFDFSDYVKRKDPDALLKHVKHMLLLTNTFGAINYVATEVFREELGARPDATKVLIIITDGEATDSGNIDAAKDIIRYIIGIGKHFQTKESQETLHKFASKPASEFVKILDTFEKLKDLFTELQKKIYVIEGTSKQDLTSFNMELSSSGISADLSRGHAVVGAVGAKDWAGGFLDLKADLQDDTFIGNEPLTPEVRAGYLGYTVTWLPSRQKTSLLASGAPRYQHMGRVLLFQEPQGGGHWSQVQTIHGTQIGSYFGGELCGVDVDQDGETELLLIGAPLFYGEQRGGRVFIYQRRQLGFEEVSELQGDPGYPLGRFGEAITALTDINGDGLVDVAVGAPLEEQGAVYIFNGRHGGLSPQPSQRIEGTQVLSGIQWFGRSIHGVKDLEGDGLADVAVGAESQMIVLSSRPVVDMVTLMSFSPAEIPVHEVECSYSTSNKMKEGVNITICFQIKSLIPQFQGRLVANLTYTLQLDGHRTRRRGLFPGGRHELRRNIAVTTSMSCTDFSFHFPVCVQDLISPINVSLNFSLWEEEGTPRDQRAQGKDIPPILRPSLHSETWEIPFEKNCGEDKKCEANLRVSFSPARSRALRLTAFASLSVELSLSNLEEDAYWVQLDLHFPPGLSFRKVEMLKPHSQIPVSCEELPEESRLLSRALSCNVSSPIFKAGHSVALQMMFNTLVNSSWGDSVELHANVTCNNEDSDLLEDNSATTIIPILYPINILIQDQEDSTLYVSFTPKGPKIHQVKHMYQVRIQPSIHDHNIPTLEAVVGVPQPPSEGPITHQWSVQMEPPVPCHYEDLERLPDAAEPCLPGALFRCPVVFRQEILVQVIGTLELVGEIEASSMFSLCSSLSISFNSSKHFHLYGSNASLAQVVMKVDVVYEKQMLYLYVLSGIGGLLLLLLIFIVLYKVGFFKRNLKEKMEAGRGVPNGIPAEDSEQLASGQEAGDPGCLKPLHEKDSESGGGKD
T1 sequence (P05107 23-769): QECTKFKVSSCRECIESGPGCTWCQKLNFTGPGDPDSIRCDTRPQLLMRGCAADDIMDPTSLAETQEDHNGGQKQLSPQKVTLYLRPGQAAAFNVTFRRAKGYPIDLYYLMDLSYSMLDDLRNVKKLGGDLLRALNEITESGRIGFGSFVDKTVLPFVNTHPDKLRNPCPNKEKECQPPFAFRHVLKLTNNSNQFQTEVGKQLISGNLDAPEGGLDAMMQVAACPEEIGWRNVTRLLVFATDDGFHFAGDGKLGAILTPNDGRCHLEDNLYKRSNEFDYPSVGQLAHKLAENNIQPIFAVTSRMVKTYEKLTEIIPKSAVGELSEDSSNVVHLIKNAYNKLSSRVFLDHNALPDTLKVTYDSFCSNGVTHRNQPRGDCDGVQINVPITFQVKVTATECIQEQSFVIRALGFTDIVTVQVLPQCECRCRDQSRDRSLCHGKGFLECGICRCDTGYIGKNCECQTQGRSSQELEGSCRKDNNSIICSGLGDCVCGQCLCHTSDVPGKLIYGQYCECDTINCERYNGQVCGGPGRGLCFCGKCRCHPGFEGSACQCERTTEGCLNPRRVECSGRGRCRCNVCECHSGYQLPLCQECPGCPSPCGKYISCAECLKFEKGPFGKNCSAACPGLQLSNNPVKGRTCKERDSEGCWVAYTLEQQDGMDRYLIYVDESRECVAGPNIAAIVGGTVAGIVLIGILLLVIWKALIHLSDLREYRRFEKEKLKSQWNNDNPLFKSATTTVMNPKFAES
Description: Glycolytic switch of human EM CD8 T cells (a) and naïve CD8 T cells (b) subsets upon injection of anti-CD3 Ab only, or anti-CD3 and anti-CD28 Ab, was assessed by metabolic flux analysis in medium containing either 1.2 mM Mg^2+, 0 mM Mg^2+, or medium which was reconstituted from 0 mM to 1.2 mM Mg^2+ immediately prior to activation (0→1.2 mM Mg^2+). (a) Results for human effector memory (EM) and (b) for human naïve CD8 T cells. Glycolytic switch was quantified by subtracting […] measurements. (c) Flow cytometric analysis of surface activation markers on human EM CD8 T cells 24 hours after activation by plate-bound anti-CD3 Ab and soluble anti-CD28 Ab, in 1.2 mM and 0 mM Mg^2+ media, respectively. (d) Abundance of inflammatory cytokines in corresponding EM CD8 T cell culture supernatants, determined by CBA. (e) CD11a (LFA-1) surface expression on human naïve and EM CD8 T cells as well PHA T cell blasts. Flow cytometry-based assessment of total LFA-1 expression assessed by mAb TS2/4 (f), closed conformation of αL by mAb HI111 (g), extended conformation of LFA-1 by mAb Kim127 (h), open head-piece conformation of LFA-1 by mAb m24 (i), phosphorylation of focal adhesion kinase (FAK) […] as well TNF expression (k)±TCR-induced activation in different extracellular Mg^2+ concentrations. (l) Flow cytometry-based assessment of LFA-1 with open-head piece conformation on human EM and naïve CD8 T cells using the open head-piece reporter mAb m24. (m) Assessment of glycolytic switch of EM CD8 T cells. (n) Assessment of glycolytic switch of naïve CD8 T cells. […] Naïve CD8 T cells were activated with in house generated anti-CD3/anti-CD28 coated microbeads. Polybead microspheres ([…], Polyscience […]) were incubated with 1 μg anti-CD3 Ab and 10 μg anti-CD28 Ab. […] Primary human T cells were activated for 24 h and PHA-blasts for 4 h. For evaluation of activation induced LFA-1 head-piece opening, T cells were activated for […] and anti-human CD11a/CD18 (clone m24) was directly added in medium and incubated on ice for 20 min. Cells were then washed twice in FACS Buffer and fixed in 2% PFA, incubated at room temperature for 20 min and washed with FACS Buffer before acquisition. […] For stainings with HI111, the cells were activated for 45 min, fixed with 2% PFA and subsequently stained with HI111 and washed with FACS Buffer before acquisition.

[1] = PHA T cell blasts ±TCR-induced activation, different extracellular Mg^2+ concentrations

Structure (SMILES): [Mg+2] [Mg^2+, Magnesium]
- Degranulation (CD107a) of REP T cells (REP T cells): significantly increased
- FAK phosphorylation in REP T cells (REP T cells): significantly increased
- Extended conformation of LFA-1 (mAb KIM127) (LFA-1; PHA T cell blasts upon T-cell activation, increasing extracellular Mg^2+ concentrations): dose-dependent KIM127 signal increase
- Inactive/bent LFA-1 conformation (mAb HI111) (LFA-1; PHA T cell blasts upon TCR stimulation, decreasing extracellular Mg^2+ concentrations): higher levels of inactive LFA-1
- Open head-piece conformation of LFA-1 (mAb m24) (LFA-1; [1]): strongly depending on extracellular Mg^2+ concentration
- Total LFA-1 expression (mAb TS2/4 epitope) (LFA-1; [1]): independent on the extracellular Mg^2+ concentration
- LFA-1 activation in unstimulated T cells (LFA-1; ±Mg^2+, data not shown): did not differ
